Laboratory results published in patent US20160152704A1, “CADHERIN 15 AGONISTS” (THE UNIVERSITY OF BIRMINGHAM, priority 2013, published 2016).
Read-outs that look alike come from different tables or passages of the source.

Key:
[1] = system: T cells (PBL) on TNF-α and IFN-α stimulated endothelial cells (EC); format: cell-based; conditions: FIG. 1
Description: (§1) We measured the transmigration of T cells (PBL) after 6 minutes incubation at 37° C. on TNF-α and IFN-α stimulated endothelial cells (EC) using phase contrast microscopy. Cultured ECs were stimulated by cytokines for 24 hours. Subsequently, peripheral blood lymphocytes (PBL) were purified from the blood of healthy donors. PEPITEM was added to the PBL and these were incubated on the endothelial cells for 6 minutes. Non-adherent PBLs were removed by washing with cell free buffer. Video-microscope images of adherent cells were made from at least 5 fields of view for each EC monolayer. Adherent lymphocytes were either, i) phase bright (PB) and adherent to the apical surface of the endothelium, or ii) phase dark (PD) and migrated through the EC monolayer. The percentage of migrated cells was calculated by dividing the number of migrated cells by the total number of adherent lymphocytes (PB+PD) and multiplying by 100. To determine whether PEPITEM targets T-cells or endothelial cells, we pre-treated T-cells, endothelial cells or both T cells and endothelial cells with PEPITEM.

[2] = system: T cells (PBL) on HUVEC where CDH15 or THBS1 were knock-down; assay: T cell transmigration assay using endothelial cells with siRNA knock-down of CDH15 or THBS1; format: cell-based, human; conditions: FIG. 4
Description: as §1
HUVEC were plated in a 12 well plate (87500 cells per well) for 24 hours or until about 80% confluence. The relevant siRNA were added at a final concentration of 50 nM to 83.75 μl or 82.5 μl if duplex in Optimem media (Life Technologies Invitrogen Compounds). […]

[3] = target: T1, CDH15-FC protein (Homo sapiens, UniProt P55291); assay: Surface plasmon resonance (Biocore 3000), PEPITEM perfused over immobilised CDH15-FC; format: binding; conditions: PEPITEM perfused at increasing concentration; FIG. 5
T1 construct: Fc
T1 sequence (P55291 with tags, fused parts or gaps limits assumed): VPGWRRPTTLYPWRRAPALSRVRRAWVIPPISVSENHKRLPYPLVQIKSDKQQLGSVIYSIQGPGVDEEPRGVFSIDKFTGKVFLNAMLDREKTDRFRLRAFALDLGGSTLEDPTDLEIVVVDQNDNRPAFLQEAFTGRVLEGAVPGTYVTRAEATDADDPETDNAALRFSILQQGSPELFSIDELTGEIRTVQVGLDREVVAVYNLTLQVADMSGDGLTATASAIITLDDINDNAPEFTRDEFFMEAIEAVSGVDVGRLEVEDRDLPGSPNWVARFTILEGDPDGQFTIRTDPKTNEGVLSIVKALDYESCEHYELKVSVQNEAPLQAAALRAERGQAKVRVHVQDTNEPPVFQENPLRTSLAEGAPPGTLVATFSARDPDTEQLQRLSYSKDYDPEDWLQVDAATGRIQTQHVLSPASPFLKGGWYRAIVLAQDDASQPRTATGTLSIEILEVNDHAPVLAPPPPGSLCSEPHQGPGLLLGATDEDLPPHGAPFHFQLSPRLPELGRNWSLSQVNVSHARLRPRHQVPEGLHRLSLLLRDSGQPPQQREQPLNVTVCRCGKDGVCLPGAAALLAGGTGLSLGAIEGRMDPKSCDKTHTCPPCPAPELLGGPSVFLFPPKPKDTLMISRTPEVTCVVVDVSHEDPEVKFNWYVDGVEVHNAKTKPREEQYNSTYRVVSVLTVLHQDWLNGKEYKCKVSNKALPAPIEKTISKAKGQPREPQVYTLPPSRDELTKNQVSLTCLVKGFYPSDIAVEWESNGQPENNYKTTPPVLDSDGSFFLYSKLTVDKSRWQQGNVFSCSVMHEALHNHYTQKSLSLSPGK
Text: Gold-coated chips were used to analyse the interaction of CDH15 with PEPITEM in the Biocore 3000 instrument. CDH15-FC protein was immobilised on a Biocore chip. PEPITEM was perfused through the Biocore cell at increasing concentration. […] This provides further evidence that cadherin-15 is the PEPITEM receptor.

binding to CDH15 protein (changes in SPR) [3]: able to bind to the CDH15 protein
Substance: PEPITEM (SVTEQGAELSNEER; listed as Homo sapiens)
inhibition of T cell transmigration ([1]; T-cells alone pre-treated with PEPITEM): ineffective at inhibiting transmigration
inhibition of T cell transmigration ([1]; endothelial cells pre-treated with PEPITEM): transmigration is successfully inhibited
inhibitory effect on T cell transmigration ([2]; endothelial cells with CDH15 (cadherin-15) knockdown): released T-cells from the inhibitory effects
effect on T-cell trafficking ([2]; endothelial cells with THBS1 (thrombospondin-1) knockdown, presence of PEPITEM): no significant effect
